In patent publication US9938273B2 (Plexxikon Inc., priority 2015, dated 2018) one finds IC50 data, which are given here for 28 compounds.

pIC50: −log10 of the molar value.

The test addresses T1, FLT3-D835Y (Homo sapiens, UniProt P36888, D835Y).
T1 construct: purchased Invitrogen PV3967
T1 sequence (P36888 27-993 D835Y): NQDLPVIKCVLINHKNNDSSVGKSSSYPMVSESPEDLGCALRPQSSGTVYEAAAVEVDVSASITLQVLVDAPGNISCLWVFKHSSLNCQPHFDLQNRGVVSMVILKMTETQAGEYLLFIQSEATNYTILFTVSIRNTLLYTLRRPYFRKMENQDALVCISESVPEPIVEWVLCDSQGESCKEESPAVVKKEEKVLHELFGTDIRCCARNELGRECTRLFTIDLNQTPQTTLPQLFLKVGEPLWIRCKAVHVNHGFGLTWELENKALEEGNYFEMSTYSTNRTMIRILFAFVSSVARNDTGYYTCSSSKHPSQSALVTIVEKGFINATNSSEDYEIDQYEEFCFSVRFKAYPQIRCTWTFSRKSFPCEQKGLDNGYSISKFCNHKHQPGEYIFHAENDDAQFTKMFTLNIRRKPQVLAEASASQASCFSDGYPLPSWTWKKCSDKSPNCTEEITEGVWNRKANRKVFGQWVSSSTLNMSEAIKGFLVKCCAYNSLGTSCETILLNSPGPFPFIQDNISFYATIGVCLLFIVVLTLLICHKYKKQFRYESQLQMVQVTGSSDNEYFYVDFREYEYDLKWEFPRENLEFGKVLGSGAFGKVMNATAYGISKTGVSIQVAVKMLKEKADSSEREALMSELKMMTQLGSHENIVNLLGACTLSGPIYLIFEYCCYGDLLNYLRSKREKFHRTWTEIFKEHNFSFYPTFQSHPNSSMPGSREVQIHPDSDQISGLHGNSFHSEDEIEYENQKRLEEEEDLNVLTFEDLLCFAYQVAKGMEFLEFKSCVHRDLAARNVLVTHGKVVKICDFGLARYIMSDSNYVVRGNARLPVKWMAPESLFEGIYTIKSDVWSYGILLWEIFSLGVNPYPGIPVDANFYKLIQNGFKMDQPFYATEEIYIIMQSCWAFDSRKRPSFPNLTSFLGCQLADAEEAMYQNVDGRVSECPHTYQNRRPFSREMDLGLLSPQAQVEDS
The test can be described thus: AlphaScreen kinase assay with recombinant enzyme, FLT3-D835Y. The format is biochemical. As to conditions: 8pt, GMean. Summed up:
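Recombinant kinase phosphorylates biotinylated poly(Glu4-Tyr) peptide (30 nM final); streptavidin donor and anti-phosphotyrosine PY20 acceptor beads (10 μg/mL final) give a 580 nm proximity signal on 680 nm excitation. IC50 determinations used a final concentration of 10 μM for FLT3-D835Y/FLT3-ITD and 100 μM for c-KIT.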
(In general: In Alpha technology, singlet oxygen from a donor bead excites a nearby acceptor bead.)
For `CC1CCN(C(=O)c2n[nH]c3ccc(-c4cnc5[nH]c(-c6ccccc6)cc5c4)cc23)CC1` [Compound P-0027, (4-methyl-1-piperidyl)-[5-(2-phenyl-1H-pyrrolo[2,3-b]pyridin-5-yl)-1H-indazol-3-yl]methanone], the pIC50 (in general, the IC50 on a negative log10 scale, so that one unit is a factor of ten) was 5.00 to 10.00.

`CN1CCC(NC(=O)c2n[nH]c3ccc(-c4cnc5[nH]c(-c6ccccc6)cc5c4)cc23)CC1` [Compound P-0022, N-(1-methyl-4-piperidyl)-5-(2-phenyl-1H-pyrrolo[2,3-b]pyridin-5-yl)-1H-indazole-3-carboxamide]: the pIC50 was 5.00 to 10.00.

In the case of `COC1CCN(C(=O)c2cccc(-c3cnc4[nH]c(-c5ccccc5)cc4c3)n2)CC1` [Compound P-0098, (4-methoxy-1-piperidyl)-[6-(2-phenyl-1H-pyrrolo[2,3-b]pyridin-5-yl)-2-pyridyl]methanone], the negative-log IC50 (pIC50) is 5.00 to 10.00.

Regarding `CC(C)(C#N)NC(=O)c1cccc(-c2cnc3[nH]c(-c4cscn4)cc3c2)n1` [Compound P-0167, N-(1-cyano-1-methyl-ethyl)-6-(2-thiazol-4-yl-1H-pyrrolo[2,3-b]pyridin-5-yl)pyridine-2-carboxamide], the pIC50 is 5.00 to 10.00.

Regarding `CC(C)(C)OC(=O)NC1CCN(C(=O)c2cccc(-c3cnc4[nH]c(-c5ccccc5)cc4c3)n2)CC1` [Compound P-0017, tert-butyl N-[1-[6-(2-phenyl-1H-pyrrolo[2,3-b]pyridin-5-yl)pyridine-2-carbonyl]-4-piperidyl]carbamate], the pIC50 was 5.00 to 10.00.

For the compound `C#Cc1cc2cc(-c3cccc(S(=O)(=O)NC4CC4)c3)cnc2[nH]1` [Compound P-0004, N-cyclopropyl-3-(2-ethynyl-1H-pyrrolo[2,3-b]pyridin-5-yl)benzenesulfonamide], the negative-log IC50 (pIC50) is 5.00 to 10.00.

For the compound `O=S(=O)(NC1CC1)c1cccc(-c2cnc3[nH]c(C#CC4CCCCC4)cc3c2)c1` [Compound P-0010, 3-[2-(2-cyclohexylethynyl)-1H-pyrrolo[2,3-b]pyridin-5-yl]-N-cyclopropyl-benzenesulfonamide], the pIC50 is 4.00 to 4.30.

On to `NC(=O)Nc1ccc(-c2cnc3[nH]c(-c4ccccc4)cc3c2)cc1` [Compound P-0005, [4-(2-phenyl-1H-pyrrolo[2,3-b]pyridin-5-yl)phenyl]urea], for which the pIC50 was 4.30 to 5.00.

For `O=S(=O)(NC1CC1)c1cccc(-c2cnc3[nH]c(C#CCO)cc3c2)c1` [Compound P-0008, N-cyclopropyl-3-[2-(3-hydroxyprop-1-ynyl)-1H-pyrrolo[2,3-b]pyridin-5-yl]benzenesulfonamide], the pIC50 was 5.00 to 10.00.

Take `CC1(C#N)CCN(C(=O)c2cccc(-c3cnc4[nH]c(-c5ccccc5)cc4c3)n2)CC1` [Compound P-0094, 4-methyl-1-[6-(2-phenyl-1H-pyrrolo[2,3-b]pyridin-5-yl)pyridine-2-carbonyl]piperidine-4-carbonitrile]: the pIC50 is 5.00 to 10.00.

In the case of `N#CC1CCN(C(=O)c2cccc(-c3cnc4[nH]c(-c5ccc(F)cc5)cc4c3)n2)C1` (stereo not shown) [Compound P-0116, 1-[6-[2-(4-fluorophenyl)-1H-pyrrolo[2,3-b]pyridin-5-yl]pyridine-2-carbonyl]pyrrolidine-3-carbonitrile], the pIC50 was 5.00 to 10.00.

Turning to `O=C(c1cccc(-c2cnc3[nH]c(-c4ccccc4)cc3c2)n1)N1CCC(CO)CC1` [Compound P-0023, [4-(hydroxymethyl)-1-piperidyl]-[6-(2-phenyl-1H-pyrrolo[2,3-b]pyridin-5-yl)-2-pyridyl]methanone], the pIC50 was 5.00 to 10.00.

For the compound `CS(=O)(=O)NC1CCN(C(=O)c2cccc(-c3cnc4[nH]c(-c5ccccc5)cc4c3)n2)C1` (stereo not shown) [Compound P-0101, N-[1-[6-(2-phenyl-1H-pyrrolo[2,3-b]pyridin-5-yl)pyridine-2-carbonyl]pyrrolidin-3-yl]methanesulfonamide], the negative-log IC50 (pIC50) is 5.00 to 10.00.

`CC(C)(C#N)NC(=O)c1cccc(-c2cnc3[nH]c(C4=CCS(=O)(=O)CC4)cc3c2)n1` [Compound P-0186, N-(1-cyano-1-methyl-ethyl)-6-[2-(1,1-dioxo-3,6-dihydro-2H-thiopyran-4-yl)-1H-pyrrolo[2,3-b]pyridin-5-yl]pyridine-2-carboxamide]: the pIC50 was 5.00 to 10.00.

For the compound `CN(C)S(=O)(=O)Nc1cccc(-c2cnc3[nH]c(-c4ccccc4)cc3c2)c1` [Compound P-0007, 5-[3-(dimethylsulfamoylamino)phenyl]-2-phenyl-1H-pyrrolo[2,3-b]pyridine], the negative logarithm of the IC50 (pIC50) is 5.00 to 10.00.

As for `N[C@H]1CCN(C(=O)c2cccc(-c3cnc4[nH]c(-c5ccccc5)cc4c3)n2)C1` [Compound P-0015, [(3S)-3-aminopyrrolidin-1-yl]-[6-(2-phenyl-1H-pyrrolo[2,3-b]pyridin-5-yl)-2-pyridyl]methanone], the negative-log IC50 (pIC50) was 5.00 to 10.00.

As to `NCC1CCN(C(=O)c2cccc(-c3cnc4[nH]c(-c5ccccc5)cc4c3)n2)CC1` [Compound P-0026, [4-(aminomethyl)-1-piperidyl]-[6-(2-phenyl-1H-pyrrolo[2,3-b]pyridin-5-yl)-2-pyridyl]methanone], the negative logarithm of the IC50 (pIC50) is 5.00 to 10.00.

Take `CC(=O)NC1CCN(C(=O)c2n[nH]c3ccc(-c4cnc5[nH]c(-c6ccccc6)cc5c4)cc23)CC1` [Compound P-0021, N-[1-[5-(2-phenyl-1H-pyrrolo[2,3-b]pyridin-5-yl)-1H-indazole-3-carbonyl]-4-piperidyl]acetamide]: the negative-log IC50 (pIC50) was 5.00 to 10.00.

On to `CC(C)(C#N)NC(=O)c1cccc(-c2cnc3[nH]c(-c4cnn(C(=O)C5CC5)c4)cc3c2)n1` [Compound P-0184, N-(1-cyano-1-methyl-ethyl)-6-[2-[1-(cyclopropanecarbonyl)pyrazol-4-yl]-1H-pyrrolo[2,3-b]pyridin-5-yl]pyridine-2-carboxamide], for which the pIC50 is 5.00 to 10.00.

Turning to `CC(C)(C#N)NC(=O)c1cccc(-c2cnc3[nH]c(-c4cnn(C(F)F)c4)c(Cl)c3c2)n1` [Compound P-0185, 6-[3-chloro-2-[1-(difluoromethyl)pyrazol-4-yl]-1H-pyrrolo[2,3-b]pyridin-5-yl]-N-(1-cyano-1-methyl-ethyl)pyridine-2-carboxamide], the negative-log IC50 (pIC50) is 5.00 to 10.00.

For the compound `CN(C)C1CCN(C(=O)c2cccc(-c3cnc4[nH]c(-c5ccccc5)cc4c3)n2)C1` (stereo not shown) [Compound P-0104, [3-(dimethylamino)pyrrolidin-1-yl]-[6-(2-phenyl-1H-pyrrolo[2,3-b]pyridin-5-yl)-2-pyridyl]methanone], the negative-log IC50 (pIC50) is 5.00 to 10.00.

Turning to `CNC1CCN(C(=O)c2n[nH]c3ccc(-c4cnc5[nH]c(-c6ccccc6)cc5c4)cc23)C1` (stereo not shown) [Compound P-0028, [3-(methylamino)pyrrolidin-1-yl]-[5-(2-phenyl-1H-pyrrolo[2,3-b]pyridin-5-yl)-1H-indazol-3-yl]methanone], the pIC50 is 5.00 to 10.00.

As for `CC(C)(C)OC(=O)NC1CCN(C(=O)c2n[nH]c3ccc(-c4cnc5[nH]c(-c6ccccc6)cc5c4)cc23)CC1` [Compound P-0011, tert-butyl N-[1-[5-(2-phenyl-1H-pyrrolo[2,3-b]pyridin-5-yl)-1H-indazole-3-carbonyl]-4-piperidyl]carbamate], the pIC50 was 5.00 to 10.00.

In the case of `N[C@H]1CCN(C(=O)c2n[nH]c3ccc(-c4cnc5[nH]c(-c6ccccc6)cc5c4)cc23)C1` [Compound P-0016, [(3S)-3-aminopyrrolidin-1-yl]-[5-(2-phenyl-1H-pyrrolo[2,3-b]pyridin-5-yl)-1H-indazol-3-yl]methanone], the pIC50 was 5.00 to 10.00.

Turning to `O=S(=O)(NC1CC1)c1cccc(-c2cnc3[nH]c(C#Cc4ccccc4)cc3c2)c1` [Compound P-0014, N-cyclopropyl-3-[2-(2-phenylethynyl)-1H-pyrrolo[2,3-b]pyridin-5-yl]benzenesulfonamide], the pIC50 was 4.00 to 4.30.

For `CN(C)CC#Cc1cc2cc(-c3cccc(S(=O)(=O)NC4CC4)c3)cnc2[nH]1` [Compound P-0009, N-cyclopropyl-3-[2-[3-(dimethylamino)prop-1-ynyl]-1H-pyrrolo[2,3-b]pyridin-5-yl]benzenesulfonamide], the negative-log IC50 (pIC50) is 5.00 to 10.00.

With `O=C(c1cccc(-c2cnc3[nH]c(-c4ccccc4)cc3c2)n1)N1CCC(C(F)(F)F)C1` (stereo not shown) [Compound P-0103, [6-(2-phenyl-1H-pyrrolo[2,3-b]pyridin-5-yl)-2-pyridyl]-[3-(trifluoromethyl)pyrrolidin-1-yl]methanone], the pIC50 is 5.00 to 10.00.

As to `O=C(c1cccc(-c2cnc3[nH]c(-c4ccccc4)cc3c2)n1)N1CCC(N2CCOCC2)C1` (stereo not shown) [Compound P-0102, (3-morpholinopyrrolidin-1-yl)-[6-(2-phenyl-1H-pyrrolo[2,3-b]pyridin-5-yl)-2-pyridyl]methanone], the negative logarithm of the IC50 (pIC50) is 5.00 to 10.00.
